Patent EP4371976B1, “IONIZABLE LIPIDS AND LIPID NANOPARTICLES CONTAINING THEREOF” (Certest Biotec, S.L., priority 2022, dated 2024)

Assays:
[1] = RNA encapsulation efficiency of LNPs by Quant-IT Ribogreen; assay type: physicochemical; conditions: LNPs with luciferase mRNA; ionizable lipid:non-cationic lipid:sterol:PEG-modified lipid 50:10:38.5:1.5; percentage of RNA entrapped in the LNP
Method: The mRNA aqueous solution was then carefully added to the ethanol solution, and the resulted solution was homogenized by pipetting up and down for 4-5 times. The resulting LNPs were immediately diluted 1:1 with Tris buffer and dialyzed overnight against Tris buffer containing 15% sucrose. The resulting LNP solution was then collected, and the encapsulated mRNA was assessed by Quant-IT® Ribogreen (Invitrogen R11490) following the manufacturer's instructions.
(§1) The LNP solution was then adjusted to a final concentration of mRNA of 100 µg/ml. Size distribution, polydispersity and Z-potential were measured by dynamic light scattering (DLS) using Malvern Zetasizer Advance Lab Blue Label. RNA encapsulation was assessed by Quant-IT® Ribogreen following the manufacturer's instructions.

[2] = Size distribution, polydispersity and Z-potential of LNPs by dynamic light scattering (Malvern Zetasizer); assay type: physicochemical; conditions: LNPs, standard formulation 50:10:38.5:1.5; DLS
Method: as §1

[3] = Apparent pKa of LNPs comprising the ionizable lipid (Table 6); conditions: standard formulation 50:10:38.5:1.5

Row | Structure (SMILES) | Encaps. efficiency (%) [1] [%] | P.D.I. [2] | Particle size/ Ø (nm) [2] [nm] | Z Potential (± D.E.) [mV] [2] [mV] | Apparent pKa [3]
1 | CCCCCCCC/C=C\CCCCCCCCOC(=O)CCSCCC(NC(=O)C(CCCCCCCC)CCCCCCCCCC)C(=O)NCC1CCN(C)CC1 (stereo not shown) [VC-LC-0523] | 95.57 | 0.17 | 169.3 | 5.29 | 7.32
2 | CCCCCCCCC(CCCCCC)COC(=O)C(CSCCC(=O)OCCCCCC(C)C)CC(=O)NC1CCN(C)CC1 (stereo not shown) [VC-LC-0532] | 99.89 | 0.15 | 137.8 | 8.05 | 8.11
3 | CCCCCCCCCCCCCCCCOC(=O)CCSCCC(NC(=O)C(CCCCCC)CCCCCCCC)C(=O)NCCN(CC)CC (stereo not shown) [VC-LC-0480] | 73.32 | 0.2 | 154.5 | -6.33 | 6.37
4 | CCCCCCCCOC(=O)CCSCC(CC(=O)NC1CCN(C)CC1)C(=O)OCC(CCCCCC)CCCCCCCC (stereo not shown) [VC-LC-0535] | 96.61 | 0.11 | 144.7 | 4.45 | 7.87
5 | CCCCCCCC/C=C\CCCCCCCCOC(=O)CCSCCC(NC(=O)C(CCCCCC)CCCCCCCC)C(=O)NCCN(CC)CC (stereo not shown) [VC-LC-0489] | 60.57 | 0.13 | 143.8 | -5.88 | 6.03
6 | CCCCCCCCCCCCCCOC(=O)CCSCCC(C(=O)NCCCN1CCOCC1)C(=O)OCC(CCCCCC)CCCCCCCC (stereo not shown) [VC-LC-0610] | 55.68 | 0.13 | 168.1 | -21.04 | 5.93
7 | CCCCCCCCC(CCCCCC)C(=O)NC(CCSCCC(=O)OCC(CC)CCCC)C(=O)NCC1CCN(C)CC1 (stereo not shown) [VC-LC-0493] | 98.56 | 0.12 | 128.8 | -0.57 | 6.46
8 | CCCCCCCCC(CCCCCCCC)OC(=O)C(CSCCC(=O)OCCCCCCCC(C)C)CC(=O)NCCCN1CCOCC1 (stereo not shown) [VC-LC-0542] | 33.76 | 0.14 | 156.3 | -10.60 | 6.43
9 | CCCCCCCCC(CCCCCC)COC(=O)CCSCCC(C(=O)NCCCN1CCOCC1)C(=O)OCC(CCCCCC)CCCCCCCC (stereo not shown) [VC-LC-0606] | 51.46 | 0.18 | 168.0 | -9.73 | 5.64
10 | CCCCCCCC/C=C\CCCCCCCCOC(=O)CCSCCC(NC(=O)C(CCCCCC)CCCCCCCC)C(=O)NCCCN1CCOCC1 (stereo not shown) [VC-LC-0361] | 41.05 | 0.18 | 169.3 | -12.18 | 5.29
11 | CCCCCCCC#CCOC(=O)CCSCCC(NC(=O)C(CCCCCC)CCCCCCCC)C(=O)NCC1CCN(C)CC1 (stereo not shown) [VC-LC-0505] | 99.88 |  | 168.6 | -2.94 | 6.74
12 | CCCCCCCCCCCCCCOC(=O)CCSCCC(NC(=O)C(CCCCCC)CCCCCCCC)C(=O)NCCN(CC)CC (stereo not shown) [VC-LC-0478] | 65.16 | 0.17 | 156.2 | -7.01 | 6.82
13 | CCCCCCCCC(CCCCCC)C(=O)NC(CCSCCC(=O)OCC(CC)CCCC)C(=O)NCCCn1ccnc1 (stereo not shown) [VC-LC-0259] | 41.89 | 0.14 | 138.8 | -8.47 | 6.21
14 | CCCCCCCCCCCCOC(=O)CCSCCC(NC(=O)C(CCCCCCCC)CCCCCCCCCC)C(=O)NCC1CCN(C)CC1 (stereo not shown) [VC-LC-0511] | 98.97 | 0.14 | 155.6 | 4.06 | 6.85
15 | CCCCCCCCCCCCCOC(=O)CCSCCC(NC(=O)C(CCCCCC)CCCCCCCC)C(=O)NCCN1CCOCC1 (stereo not shown) [VC-LC-0392] | 40.58 | 0.19 | 136.1 | -11.14 | 4.72
16 | CCCCCCCC/C=C\CCCCCCCCOC(=O)CCSCCC(NC(=O)C(CCCCCC)CCCCCCCC)C(=O)NC1CCN(C)CC1 (stereo not shown) [VC-LC-0430] | 84.48 | 0.23 | 216.2 | 1.65 | 7.00
17 | CCCCCCCCCCCCCCOC(=O)CCSCCC(NC(=O)C(CCCCCCCC)CCCCCCCCCC)C(=O)NCCCN1CCOCC1 (stereo not shown) [VC-LC-0577] | 55.61 | 0.13 | 182.2 | -15.06 | 5.69
18 | CCCCCCCCCCC(CCCCCCCC)C(=O)NC(CCSCCC(=O)OCCCCCC)C(=O)NC1CCN(C)CC1 (stereo not shown) [VC-LC-0566] | 55.25 | 0.13 | 149.0 | -3.35 | 6.57
19 | CCCCCCCCCCCCCCCCOC(=O)CCSCCC(NC(=O)C(CCCCCC)CCCCCCCC)C(=O)NCCCN1CCCC1 (stereo not shown) [VC-LC-0248] | 89.76 | 0.35 | 248 | 4.52 | 7.24
20 | CCCCCCCCCCC(CCCCCCCC)C(=O)NC(CCSCCC(=O)OCCCCCCCC(C)C)C(=O)NCC1CCN(C)CC1 (stereo not shown) [VC-LC-0509] | 98.62 | 0.23 | 170.1 | 0.25 | 7.60
21 | CCCCCCCCCCCCCCOC(=O)CCSCCC(C(=O)NC1CCN(C)CC1)C(=O)OC(CCCCCCCC)CCCCCCCC (stereo not shown) [VC-LC-0444] | 85.85 | 0.07 | 185.7 | -3.35 | 6.28
22 | CCCCCCCCOC(=O)CCSCCC(NC(=O)C(CCCCCC)CCCCCCCC)C(=O)NCCCN1CCOCC1 (stereo not shown) [VC-LC-0176] | 47.36 |  |  | -17.58 | 5.77
23 | CCCCCCCC/C=C\CCCCCCCCOC(=O)CCSCCC(NC(=O)CCCCCCCCCCCCCCCCC)C(=O)NC1CCN(C)CC1 (stereo not shown) [VC-LC-0438] | 95.26 | 0.15 | 181.3 | 7.19 | 6.61
24 | CCCCCCCC/C=C\CCCCCCCC(=O)NC(CCSCC(=O)OCCCCCCCCCCCCC)C(=O)NCCCN1CCOCC1 (stereo not shown) [VC-LC-0338] | 62.80 | 0.14 | 146.3 | -5.38 | 6.64
25 | CCCCCCCC/C=C\CCCCCCCC(=O)NC(CCSCCC(=O)OCCCCCCCC(C)C)C(=O)NCCCN(CCO)CCO (stereo not shown) [VC-LC-0292] | 94.63 | 0.18 | 177.7 | 7.79 | 7.06
26 | CCCCCCCC#CCOC(=O)CCSCCC(NC(=O)C(CCCCCC)CCCCCCCC)C(=O)NCCN1CCOCC1 (stereo not shown) [VC-LC-0408] | 41.23 | 0.25 | 168.1 | -15.07 | 4.83
